The values that follow come from patent publication US8597688B2, “Pesticidal mixtures comprising isoxazoline compounds II” (BASF SE, priority 2008, dated 2013).

Type in all cases: cell-based
One test has as its system Phytophthora infestans. Particulars: day 7.
In the next test the test system is Botrytis cinerea. In words: Activity against the grey mold Botrytis cinerea in the microtiterplate test (Botrci). Particulars: 7 days.
In another test the test system is Pyricularia oryzae. Particulars: single active compound, Pyrior microtiter test.
The subject of another test is Septoria tritici. Put plainly: Activity against leaf blotch on wheat caused by Septoria tritici (Septtr), microtiter test. As to conditions: day 7.

Read-outs that look alike come from different tables or passages of the source.

As for `N#Cc1c(Cl)c(Cl)c(Cl)c(C#N)c1Cl` [Chlorothalonil, 2,4,5,6-tetrachloroisophthalonitrile, reference compound], the Observed efficacy with Phytophthora infestans (1 ppm) came to 53%; in the test on Botrytis cinerea (1 ppm), 43%. Turning to `COC(=O)Nc1nc2ccccc2[nH]1` [Carbendazim], in the test on Pyricularia oryzae (concentration 0.25 ppm), the Observed efficacy was determined as 18. Compound `CON=C(C(=O)OC)c1ccccc1CON=C(C)c1cccc(C(F)(F)F)c1` [Trifloxystrobin] yielded an Observed efficacy in the test with Pyricularia oryzae (concentration 0.063 ppm) of 32.

As for `CO/C=C(/C(=O)OC)c1ccccc1COc1cccc(C(F)(F)F)n1` [Picoxystrobin], in the test on Pyricularia oryzae (concentration 0.063 ppm), the Observed efficacy was determined as 60. With `Fc1ccc([C@]2(Cn3cncn3)O[C@H]2c2ccccc2Cl)cc1` [Epoxiconazol], in the test on Pyricularia oryzae (concentration 0.063 ppm), the Observed efficacy is recorded as 0. `CO/N=C(/C1=NOCCO1)c1ccccc1Oc1ncnc(Oc2ccccc2Cl)c1F` [Fluoxastrobin, (E)-{2-[6-(2-chlorophenoxy)-5-fluoropyrimidin-4-yloxy]phenyl}(5,6-dihydro-1,4,2-dioxazin-3-yl)methanone O-methyloxime, reference compound] came in with an Observed efficacy with Septoria tritici (0.25 ppm) of 68%. Compound `CC(C)OC(=O)N[C@H](C(=O)N[C@H](C)c1nc2ccc(F)cc2s1)C(C)C` [Fubenthiavalicarb (Benthivalicarb), isopropyl {(S)-1-[(1R)-1-(6-fluorobenzothiazol-2-yl)-ethylcarbamoyl]-2-methylpropyl}carbamate, reference compound] showed an Observed efficacy in the test with Septoria tritici (4 ppm) of 0%. In the case of `CC(C)NC(=O)N1CC(=O)N(c2cc(Cl)cc(Cl)c2)C1=O` [Iprodion], the Observed efficacy in the test on Pyricularia oryzae (concentration 0.24 ppm) is given as 4. Regarding `O=C(CNC(=O)c1ccc(C2=NOC(c3cc(Cl)cc(Cl)c3)(C(F)(F)F)C2)c2ccccc12)NCC(F)(F)F` (stereo not drawn) [C.I.402], the Observed efficacy with Pyricularia oryzae (concentration 1 ppm) stood at 6; in the test on Pyricularia oryzae (concentration 4 ppm) it was 35; in the test with Septoria tritici (4 ppm) it was 2%; in the test with Septoria tritici (63 ppm), 0%. For `Cc1cc(C2=NOC(c3cc(Cl)cc(Cl)c3)(C(F)(F)F)C2)ccc1C(=O)NCC(=O)NCC(F)(F)F` (stereo not drawn) [C.I.240], the Observed efficacy came out at 6% in the test on Phytophthora infestans (4 ppm); 15% with Phytophthora infestans (16 ppm); 0% in the test with Botrytis cinerea (0.063 ppm); 18% in the test with Botrytis cinerea (16 ppm); 0 with Pyricularia oryzae (concentration 1 ppm); 11 in the test with Pyricularia oryzae (concentration 4 ppm). Further, the Observed efficacy in the test on Septoria tritici (4 ppm) worked out at 0%.

In the test with Pyricularia oryzae (concentration 1 ppm), Mancozeb came in with an Observed efficacy of 36. `CC1(C(=O)Nc2ccc(O)c(Cl)c2Cl)CCCCC1` [Fenhexamid, N-(2,3-dichloro-4-hydroxyphenyl)-1-methylcyclohexanecarboxamide, reference compound]: the Observed efficacy with Botrytis cinerea (0.016 ppm) is reported as 51%. Consider `COC(=O)N(OC)c1ccccc1COc1ccn(-c2ccc(Cl)cc2)n1` [Pyraclostrobin, methyl N-{2-[1-(4-chlorophenyl)-1H-pyrazol-3-yloxymethyl]phenyl}(N-methoxy)carbamate, reference compound], for which the values for the Observed efficacy in the test on Phytophthora infestans (0.016 ppm) and with Pyricularia oryzae (concentration 0.004 ppm) were 13% and 26, respectively.
